Reference: PubChem BioAssay AID330 (DTP/NCI, 2004)
Where “and” joins values, the source holds several entries; their conditions need not be identical. Equal values may be shown once. Inconclusive results and toxic doses are left out. The calls were made as follows: active = survival T/C of 150% or more; inactive = T/C below 125% in these data.

Tested on: P388 leukemia ip, CD2F1 mice, survival T/C
Test: NCI In Vivo Anticancer Drug Screen. Data for tumor model P388 Leukemia (intraperitoneal) in CD2F1 (CDF1) mice
Details: endpoint: median survival time, higher = longer survival
Summary of the method: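 Mice carrying the transplanted tumor received test compound or vehicle. Survival was recorded in each group, and the value is the treated-group measurement divided by that of the vehicle-treated control group.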

[1] = dose: 60.0 mg/kg/injection, schedule: Q01DX005 (ip), vehicle: Klucel (hydroxypropylcellulose) (HPC)
[2] = dose: 120.0 mg/kg/injection, schedule: Q01DX005 (ip), vehicle: Klucel (hydroxypropylcellulose) (HPC)
[3] = dose: 240.0 mg/kg/injection, schedule: Q01DX005 (ip), vehicle: Klucel (hydroxypropylcellulose) (HPC)
[4] = dose: 50.0 mg/kg/injection, schedule: Q01DX005 (ip), vehicle: saline with Tween-80
[5] = dose: 100.0 mg/kg/injection, schedule: Q01DX005 (ip), vehicle: saline with Tween-80
[6] = dose: 200.0 mg/kg/injection, schedule: Q01DX005 (ip), vehicle: saline with Tween-80
[7] = dose: 50.0 mg/kg/injection, schedule: Q01DX009 (ip), vehicle: saline
[8] = dose: 100.0 mg/kg/injection, schedule: Q01DX009 (ip), vehicle: saline
[9] = dose: 200.0 mg/kg/injection, schedule: Q01DX009 (ip), vehicle: saline
[10] = dose: 60.0 mg/kg/injection, schedule: Q01DX005 (ip), vehicle: saline with Tween-80
[11] = dose: 120.0 mg/kg/injection, schedule: Q01DX005 (ip), vehicle: saline with Tween-80
[12] = dose: 240.0 mg/kg/injection, schedule: Q01DX005 (ip), vehicle: saline with Tween-80
[13] = dose: 50.0 mg/kg/injection, schedule: Q01DX009 (ip), vehicle: Klucel (hydroxypropylcellulose) (HPC)
[14] = dose: 100.0 mg/kg/injection, schedule: Q01DX009 (ip), vehicle: Klucel (hydroxypropylcellulose) (HPC)
[15] = dose: 200.0 mg/kg/injection, schedule: Q01DX009 (ip), vehicle: Klucel (hydroxypropylcellulose) (HPC)
[16] = dose: 100.0 mg/kg/injection, schedule: Q04DX003 (ip), vehicle: saline with Tween-80
[17] = dose: 200.0 mg/kg/injection, schedule: Q04DX003 (ip), vehicle: saline with Tween-80
[18] = dose: 12.5 mg/kg/injection, schedule: Q01DX009 (ip), vehicle: saline with Tween-80
[19] = dose: 25.0 mg/kg/injection, schedule: Q01DX009 (ip), vehicle: saline with Tween-80
[20] = dose: 50.0 mg/kg/injection, schedule: Q01DX009 (ip), vehicle: saline with Tween-80
[21] = dose: 100.0 mg/kg/injection, schedule: Q01DX009 (ip), vehicle: saline with Tween-80
[22] = dose: 200.0 mg/kg/injection, schedule: Q01DX009 (ip), vehicle: saline with Tween-80

Measured: T/C

CCCC(CC(=O)O)c1c2c(c(O)c3c1OC(C)C(C)C3=O)C=CC(C)(C)O2 (centres undefined)
inactive: [1] 97 % of control | [2] 103 % of control | [3] 93 % of control

O=[N+]([O-])c1cccc2c1ccc1nonc12
inactive: [4] 99 % of control | [5] 94 % of control | [6] 97 % of control

COc1ccc(OC)c(C=C(C(C)=O)C(C)=O)c1
inactive: dose: 25.0 mg/kg/injection, schedule: Q01DX009 (ip), vehicle: other 111 % of control | dose: 50.0 mg/kg/injection, schedule: Q01DX009 (ip), vehicle: other 105 % of control | dose: 100.0 mg/kg/injection, schedule: Q01DX009 (ip), vehicle: other 109 % of control | dose: 200.0 mg/kg/injection, schedule: Q01DX009 (ip), vehicle: other 108 % of control | dose: 400.0 mg/kg/injection, schedule: Q01DX009 (ip), vehicle: other 115 % of control

O=c1c2ccccc2nc2n1OCC2
inactive: [7] 103 % of control | [8] 111 % of control | [9] 111 % of control

CC(C)(C)C1=NN=C(C(C)(C)C)CSC1
inactive: [10] 108 % of control | [11] 103 % of control | [12] 104 % of control

O=C(CCl)NC1(C(=O)O)CCCC1
inactive: [13] 94 % of control | [14] 90 % of control | [15] 97 % of control

Clc1cccc(/C=C/c2ccnnc2)c1
inactive: [7] 101 % of control | [8] 86 % of control and 97 % of control | [9] 103 % of control and 96 % of control

Nc1ccc2c(SCCCCCCCCSc3c4ccccc4nc4cc(N)ccc34)c3ccccc3nc2c1
inactive: [10] 106 % of control | [11] 106 % of control

Cc1ccc(S(=O)(=O)N/N=C/c2cc([N+](=O)[O-])ccc2O)cc1
inactive: dose: 12.5 mg/kg/injection, schedule: Q01DX005 (ip), vehicle: distilled water + Tween-80 93 % of control | dose: 25.0 mg/kg/injection, schedule: Q01DX005 (ip), vehicle: distilled water + Tween-80 100 % of control | dose: 50.0 mg/kg/injection, schedule: Q01DX005 (ip), vehicle: distilled water + Tween-80 112 % of control | dose: 100.0 mg/kg/injection, schedule: Q01DX005 (ip), vehicle: distilled water + Tween-80 105 % of control

CCn1c(=O)c(C(C)=O)cc2c(=O)c3c(ccc4ccccc43)oc21
inactive: [4] 104 % of control | [5] 93 % of control | [6] 91 % of control

COc1cc(/C=N/NC(=O)c2cc(OC)c(OC)c(OC)c2)ccc1O
inactive: [10] 99 % of control | [11] 101 % of control | [12] 95 % of control

C=C1C(=O)OC2C1C(OC(=O)/C(C)=C/C)CC1(C)OC1C1OC1C1(CO1)C2O (centres undefined)
inactive: dose: 5.0 mg/kg/injection, schedule: Q01DX005 (ip), vehicle: Klucel (hydroxypropylcellulose) (HPC) 106 % of control | dose: 10.0 mg/kg/injection, schedule: Q01DX005 (ip), vehicle: Klucel (hydroxypropylcellulose) (HPC) 97 % of control | dose: 20.0 mg/kg/injection, schedule: Q01DX005 (ip), vehicle: Klucel (hydroxypropylcellulose) (HPC) 95 % of control | dose: 40.0 mg/kg/injection, schedule: Q01DX005 (ip), vehicle: Klucel (hydroxypropylcellulose) (HPC) 104 % of control | dose: 80.0 mg/kg/injection, schedule: Q01DX005 (ip), vehicle: Klucel (hydroxypropylcellulose) (HPC) 116 % of control

N[C@H]1CC[C@@H](C(=O)O)C1
inactive: dose: 50.0 mg/kg/injection, schedule: Q01DX005 (ip), vehicle: saline 109 % of control | dose: 100.0 mg/kg/injection, schedule: Q01DX005 (ip), vehicle: saline 101 % of control | dose: 200.0 mg/kg/injection, schedule: Q01DX005 (ip), vehicle: saline 108 % of control

Cc1ccc(S(=O)(=O)N/N=C2/C=CC3(CCCCC3)CC2)cc1
inactive: [13] 109 % of control | [14] 102 % of control | [15] 111 % of control

CCC(Br)C(=O)SC(C)(C)C (centres undefined)
inactive: [16] 111 % of control | [17] 106 % of control

O=C(Nc1cccc(Cl)c1Cl)Oc1ccc(Cl)cc1C(=O)c1ccccc1
inactive: [7] 94 % of control | [8] 89 % of control | [9] 99 % of control

CCC1(O)C(=O)c2ccccc2N(c2ccccc2)C1=O (centres undefined)
inactive: [1] 91 % of control | [2] 90 % of control | [3] 90 % of control

CC(C(=O)O)C1(O)CCCCC1 (centres undefined)
inactive: [18] 99 % of control | [19] 105 % of control | [20] 102 % of control | [21] 106 % of control

CCCCOC1CCC2(C)C(=CCC3C2CCC2(C)C(C(C)CCCC(C)C)CCC32)C1 (centres undefined)
inactive: dose: 100.0 mg/kg/injection, schedule: Q04DX003 (sc), vehicle: steriod suspending solution 104 % of control | dose: 200.0 mg/kg/injection, schedule: Q04DX003 (sc), vehicle: steriod suspending solution 100 % of control | dose: 400.0 mg/kg/injection, schedule: Q04DX003 (sc), vehicle: steriod suspending solution 100 % of control

CCOC(=O)/C(C#N)=C\c1c(OC(C)=O)cn2c(C)cccc12
inactive: dose: 100.0 mg/kg/injection, schedule: Q01DX001 (ip), vehicle: saline with Tween-80 104 % of control | dose: 200.0 mg/kg/injection, schedule: Q01DX001 (ip), vehicle: saline with Tween-80 98 % of control | dose: 400.0 mg/kg/injection, schedule: Q01DX001 (ip), vehicle: saline with Tween-80 98 % of control

CN1C(NN)=NS(=O)(=O)c2ccccc21
inactive: [10] 106 % of control | [11] 103 % of control | [12] 106 % of control

O=S(=O)(O)CCNC(=S)C(=S)NCCS(=O)(=O)O
inactive: [7] 100 % of control | [8] 100 % of control | [9] 101 % of control

O=C1CCCCCCCCC1O (centres undefined)
inactive: [16] 106 % of control | [17] 108 % of control | dose: 400.0 mg/kg/injection, schedule: Q04DX003 (ip), vehicle: saline with Tween-80 110 % of control

COc1cc(/C=C2/SC(=S)NC2=O)cc(OC)c1OC
inactive: [19] 100 % of control | [20] 102 % of control | [21] 96 % of control | [22] 96 % of control

COc1cc(C(=O)NC(=S)Nc2csc(-c3ccc(F)cc3)n2)cc(OC)c1OC
inactive: dose: 50.0 mg/kg/injection, schedule: Q01DX005 (ip), vehicle: Klucel (hydroxypropylcellulose) (HPC) 100 % of control | dose: 100.0 mg/kg/injection, schedule: Q01DX005 (ip), vehicle: Klucel (hydroxypropylcellulose) (HPC) 94 % of control | dose: 200.0 mg/kg/injection, schedule: Q01DX005 (ip), vehicle: Klucel (hydroxypropylcellulose) (HPC) 90 % of control

Cc1ccc(N/N=C2\CC(=O)NC(=O)N2)cc1C
inactive: [20] 104 % of control | [21] 104 % of control | [22] 99 % of control

[Cl][Rh][Cl].[NH-]c1nc2c(ccc3ccccc32)s1.[NH-]c1nc2c(ccc3ccccc32)s1.[NH-]c1nc2c(ccc3ccccc32)s1.[NH-]c1nc2c(ccc3ccccc32)s1
inactive: dose: 100.0 mg/kg/injection, schedule: Q04DX003 (ip), vehicle: saline 108 % of control | dose: 200.0 mg/kg/injection, schedule: Q04DX003 (ip), vehicle: saline 109 % of control | dose: 400.0 mg/kg/injection, schedule: Q04DX003 (ip), vehicle: saline 105 % of control

C1CN=C(N2CCCC2)C1
inactive: [18] 103 % of control | [19] 94 % of control | [20] 101 % of control and 90 % of control
